# Source: a melting point compilation (Tetko et al.; mined from patent text by program, amines drawn as free bases though some values may be those of a salt)
row,Compound,melting point [°C]
1,NC(=O)c1ncn2c1CN=C(c1ccccc1F)c1cc(Cl)ccc1-2,292 to 294
2,CCOc1c(C)cc([N+](=O)[O-])cc1C,56
3,CON1C(C)(C)CC(OCC2CO2)CC1(C)C (centres undefined),47 to 49
4,ON=C1CCCCC12OCCO2,97 to 98
5,COc1ccc(C(=O)Nc2c(Cl)cncc2Cl)cc1OC1CC=CC1,193 to 195
6,Cc1c(F)c(N2CCC(n3cncn3)C2)c(F)c2c1c(=O)c(C(=O)O)cn2C1CC1 (centres undefined),207 to 210
7,CCc1c(Cl)nc(OCc2ccccc2)nc1OCc1ccccc1,53 to 54
8,CNC(=O)Oc1ccc2onc(NCCN3CCOCC3)c2c1,135 to 136
9,O=C(O)Cc1c(C(=O)c2ccc(-c3cccs3)cc2)[nH]c2cc(Cl)ccc12,246 to 249
10,Cc1nc(Nc2ccccc2)sc1C(=O)c1ccc(N)c([N+](=O)[O-])c1,235 to 239
11,NS(=O)(=O)c1ccc(-c2noc(-c3cnn4c(C5CC5)cc(-c5ccc(C(F)(F)F)cc5)nc34)n2)cc1,313
12,COc1ccc(C(=O)N2CCc3cc(O)c(OC)cc3C2=O)cc1,224 to 225
13,C=C(C)COc1ccc2c(C)cc(=O)oc2c1C(=O)C=Cc1cc(OC)c(OC)c(OC)c1,128 to 130
14,O=C(NC1N=C(c2ccccc2)c2oc3ccccc3c2NC1=O)OCc1ccccc1 (centres undefined),> 260
15,N#CC12CC(c3ccccc31)c1ccccc12,120 to 123
16,Cc1cc(C)c(Cc2nc(C)nc(O)c2C)c(C)c1,260 to 262
17,COc1ccccc1-c1nc2cc(NC(=O)OC(C)(C)C)ccn2n1,203
18,COc1ccc(S(=O)(=O)N(CCC(=O)N2CCC(C(=O)O)CC2)C(CC(C)C)C(=O)NO)cc1 (centres undefined),118 to 120
19,O=C(c1cc(-c2ccccc2)c(=O)n2c1-c1ccccc1C2)N1CCN(c2ccccc2)CC1,208 to 210
20,COc1ccnc(CCc2nc3cc(-c4ccc(S(=O)(=O)Nc5ccc(C)cc5)cc4)cnc3[nH]2)c1,219 to 220

row,Compound,melting point [°C]
1,FC(F)(F)C(F)(F)C1(CNC2=NCCO2)CCCCC1,115 to 118
2,CS(=O)(=O)Nc1ccc(-c2cc(-c3c(-c4cccc(Cl)c4)nc4ccccn34)ccn2)cc1,60
3,Cc1ccc(S(=O)(=O)Oc2ccc(NC(=O)NCCCl)cc2)cc1,149 to 150
4,Cn1nc(-c2ccccc2)nc1-c1cccnc1,97 to 98
5,OC(Cc1ccc(F)cc1)(Cn1cncn1)C1(Cl)CC1 (centres undefined),111
6,N#Cc1cc(NC(=O)c2sc3ccccc3c2Cl)ccc1N1CCC(N2CCOCC2)CC1,227 to 228
7,CN1CCC23c4c5ccc(O)c4OC2C(=NO)CCC3(O)C1C5 (centres undefined),270 to 271
8,O=c1[nH]c2cc(Cl)ccc2c(=O)n1CCCN1CC=C(c2ccc(Cl)cc2)CC1,225 to 227
9,CC(C)Sc1c(C(N)=O)sc2ccc(OCc3ccccc3)cc12,150 to 152
10,COc1cnc(CO)c(C)c1OC,91 to 92
11,NCc1cccc(Cn2ccc(OCc3ccc(F)cc3F)c(Br)c2=O)c1F,160 to 163
12,Cc1c(N2CCC(N(C)C)C(C)(C)C2)c(F)cc2c(=O)c(C(=O)O)cn(C3CC3)c12 (centres undefined),209 to 210
13,Cc1cc(N)c(Cl)c(C)n1,86
14,O=c1[nH]c(CCl)c(Br)c(=O)[nH]1,245
15,COc1cc(OC)c(C=CC(=O)c2ccc(S(N)(=O)=O)cc2)cc1C#Cc1ccccc1N,167 to 169
16,CC=CC(=O)Oc1cc(C)nc(C(Cl)(Cl)Cl)n1,55
17,O=C(NCCc1ccccn1)c1ccccc1-c1ccccc1CNS(=O)(=O)c1ccccc1,131
18,CC(C)CCn1c(=O)c2c(N3CCN(C)CC3)cc(Cl)cc2n(Cc2ccccc2)c1=O,62 to 68
19,CC(C)(C(=O)O)c1cc(C(=O)c2ccccc2)ccc1O,207
20,Fc1ccc2c(CCCN3CCN(c4n[nH]c5ccccc45)CC3)noc2c1,139 to 141

row,Compound,melting point [°C]
1,O=[N+]([O-])c1ccc(N2CCN(Cc3ccccc3)CC2)nc1CS(=O)(=O)c1ccccc1,175 to 176
2,CCc1ccc2oc(C(=O)Nc3ccc(-c4ccc(S(=O)(=O)NC(C(=O)OC)C(C)C)cc4)cc3)c(C)c2c1OCc1ccccc1 (centres undefined),191 to 193
3,O=C(O)c1ccc(COCc2csc3nc(C(=O)NCCc4ccccc4)[nH]c(=O)c23)cc1,227 to 229
4,CCOC(=O)c1ccc(SCC)c(-c2cc(C)no2)c1C,39 to 40
5,CCOC(=O)CCC(=O)c1ccc(-c2ccccc2F)cc1,56 to 58
6,Cc1c(C)c2c(c(C)c1O)CCC(C)(C#Cc1cccs1)O2 (centres undefined),133 to 135
7,Oc1cc2cc(-c3c(F)cccc3F)sc2c(Cl)c1Cl,161 to 162
8,O=C(NCC1Cc2c(Cl)cc3c(c2O1)CCC3)OCc1ccccc1 (centres undefined),127 to 130
9,C=Cc1c(C#N)nn(-c2c(Cl)cc(C(F)(F)F)cc2Cl)c1Cl,69.8 to 70.4
10,CCOC(=O)CN(C)CC=CC(=O)Nc1ccc2ncnc(Nc3cccc(Br)c3)c2c1,182 to 183
11,CCS(=O)(=O)c1ccc(Oc2ccc(Cl)c(Cl)c2)nc1,117 to 118
12,CCOCc1nc2c(N)nc3cc(Br)cnc3c2n1CC(C)(C)F,221 to 222
13,CSc1c(-c2ccccc2)[nH]c2ccccc12,103
14,CN(Cc1cccs1)C(=O)C1(c2ccc(F)cc2)CCCC1,72 to 75
15,CC(=O)n1cc(-c2ccccc2)c(-n2cnnc2)n1,165 to 168
16,C=C(C)CN1C(=O)CC(=O)N(c2ccccc2)c2cc(Cl)ccc21,149 to 151
17,O=C(N[C@H](Cc1ccc(C(F)(F)F)cc1)[C@@H](O)c1ccc(F)cc1)c1cc(C(F)(F)F)cc(C(F)(F)F)c1 (racemic),150 to 151
18,CC1(C)CC(=O)Nc2cc3nc(-c4ccc(C#N)cc4)[nH]c3cc21,228 to 233
19,Cc1ccc(C=CC(=O)NNC(=O)C=Cc2ccc(C)cc2)cc1,307
20,CC(Cl)CC(C)Oc1ccc(-c2ccc(C(=O)Oc3ccc(C#N)cc3)cc2)cc1 (centres undefined),104

# Further lines, results first:
row,melting point [°C],Compound
1,84 to 86,COc1cccc(C=CC(=O)N2CCNCC2)c1
2,144 to 146,Nc1cnccc1-c1ccc(Cl)cc1
3,136 to 138,CC(=O)NCC1CN(c2cccc(Cl)n2)C1
4,227 to 228,O=C1NC(C(=O)N2CCN3C(=O)OC(c4ccccc4)(c4ccccc4)C3C2)c2ccccc21 (centres undefined)
5,105 to 106,CCN(CC)c1cccc(OCCOS(N)(=O)=O)c1
6,95.5 to 97,COc1cccc(N(C)C(=S)Oc2ccc3ccccc3c2)n1
7,100 to 102,Cc1nc2c(S(=O)(=O)Cl)cccc2s1
8,131 to 135,CC(C)NC(=O)CCC(O)c1ccccc1 (centres undefined)
9,103 to 106,Cc1c(OCc2ccccc2)c(=O)ccn1CCOC(=O)C(C)(C)C
10,68 to 70,COC(=O)C1CC(=O)N(c2cc(C(F)(F)F)cc(C(F)(F)F)c2)C1 (centres undefined)
11,58.5 to 61,CCOC(OCC)[C@@H]1CCCN1C(=O)[C@@H]1CCCN1C(=O)OCc1ccccc1
12,122 to 125,CN(CCc1ccccc1)C(=O)Cn1cc(CCC(=O)O)c2cc(OCc3ccccc3)ccc21
13,130 to 131,CCOC(=O)N1c2cc(OC)c(OC)cc2C(=O)C(=CN(C)C)C1C (centres undefined)
14,124 to 125,Cc1ccc(Cn2ncnc2C(NS(=O)(=O)c2ccc(Cl)s2)C(C)C)cc1 (centres undefined)
15,71 to 72,CC(C)(c1ccc(OP(=O)(c2ccccc2)c2ccccc2)cc1)c1ccc(OP(=O)(c2ccccc2)c2ccccc2)cc1
16,39 to 42,CON(C)C(=O)c1ccoc1
17,154 to 160,COc1ccc(C(=CC(=O)N2CCOCC2)c2ccc(Cl)nc2)cc1OC
18,103 to 104,COc1cccc2c1OC(CO)C2=O (centres undefined)
19,50 to 55,S=C=NCCCN1CCC(c2ccccc2)CC1
20,192 to 200,Cc1cc(C)c(N2c3ccccc3Sc3ccccc32)c(C)c1

row,melting point [°C],Compound
1,148 to 149,CC(Nc1ccc(Cl)c(Cl)c1)C(=O)O (centres undefined)
2,171 to 172,CCC(=O)Nc1c(C(=O)c2cc(CO)co2)[nH]c2cc(Cl)ccc12
3,109 to 111,Cc1ccc(C)n1CCNC(=O)CN1CCCC1=O
4,231 to 232,O=C(O)c1ccccc1Sc1ccc(Cl)c(F)c1
5,214 to 215,COc1ccc(C(=O)O)c2c1CCCC2
6,189 to 191,CC(C)c1nc(CCOC(N)=O)n(Cc2ccncc2)c1Sc1cc(Cl)cc(Cl)c1
7,170 to 176,O=C(O)c1nc2n(n1)-c1cccnc1N(C1CCCCC1)C2
8,112 to 113,Clc1ccc(NC2COc3ccc(Br)cc32)c(Cl)c1 (centres undefined)
9,182 to 185,Cc1cccc2cc3c(=O)n(CCc4cn(C(=O)NCCN(C)C)c5ccccc45)cc(C(=O)NCCN(C)C)c3nc12
10,100 to 110,Nc1ncnc2c1nc(SCC(O)COc1ccccc1)n2C1OC(CO)C(O)C1O (centres undefined)
11,226 to 228,CCCOc1ccc(F)c2c(=O)c(-c3ccc(OC)cc3)cn(CC(=O)NC3CCNCC3)c12
12,157 to 159,COc1cc2ncn([C@H](C)[C@](O)(Cn3cncn3)c3ccc(F)cc3F)c(=O)c2cc1OC
13,94 to 95,COCCNC(=O)c1cc(-c2cccc3cc(Cc4cccc(C(F)(F)F)c4)sc23)ccc1F
14,63 to 64,CCOC(=O)c1csnc1-c1ccc(C(F)(F)F)cc1
15,78 to 80,COC(=O)CCCC(=O)c1ccc(OCCCC/C=C/c2ccc(OC)cc2)c(O)c1
16,183 to 187,COc1cc(OC)nc(NC(=O)NS(=O)(=O)c2ccccc2-c2ccno2)n1
17,84 to 86,CCOc1c([N+](=O)[O-])cnn1-c1c(Cl)cc(C(F)(F)F)cc1Cl
18,79.2,NC(=O)C1CN(Cc2ccccc2)CCN1CCCC(c1ccc(F)cc1)c1ccc(F)cc1 (centres undefined)
19,231,CCCn1c(=O)c2c(nc(/C=C/c3ccc(OC(=O)c4ccccc4)c(OC(=O)c4ccccc4)c3)n2C)n(CCC)c1=O
